# Results taken from ChEMBL document CHEMBL3885861, “Open TG-GATES”.
# Species on record: Rattus norvegicus
# Assay: Open TG-GATES - Regimen: Single
# Type: toxicity, organism-based, Sprague-Dawley
# Design: regimen Single, gender Male, age 6 weeks
# Details: in vivo, po, 120 mg/kg, route gavage, dose level Middle; for KIDNEY_L / KIDNEY_R / KIDNEY_TOTAL: tissue Kidney; for LIVER: tissue Liver; for ALP / ALT / AST / BUN / CRE / Ca / Cl / DBIL / GLC / IP / LDH / Na / PL / RALB / TBIL / TC / TG / TP / gamma-GTP: tissue Plasma
smiles,measurement,setting,value
CC(C)N(CCC(C(N)=O)(c1ccccc1)c1ccccn1)C(C)C (centres undefined) [DISOPYRAMIDE],Bas,"3 h, tissue Blood",0%
same,Eos,"3 h, tissue Blood",0.8%
same,Fbg,"3 h, tissue Blood",307.4 mg/dL
same,Ht,"3 h, tissue Blood",41.8%
same,Lym,"3 h, tissue Blood",77.4%
same,MCHC,"3 h, tissue Blood",32.3%
same,MCV,"3 h, tissue Blood",62.8 fL
same,Mono,"3 h, tissue Blood",2.2%
same,Neu,"3 h, tissue Blood",19%
same,PT,"3 h, tissue Blood",15.5 s
same,Plat,"3 h, tissue Blood",121.9 x10_4/uL
same,RBC,"3 h, tissue Blood",665.8 x10_4/ul
same,Ret,"3 h, tissue Blood",7.4%
same,WBC,"3 h, tissue Blood",63.5 x10_2/uL
same,KIDNEY_L,3 h,0.9 g
same,KIDNEY_R,3 h,1 g
same,KIDNEY_TOTAL,3 h,1.9 g
same,LIVER,3 h,9.5 g
same,ALP,3 h,1368.8 IU/L
same,ALT,3 h,51.2 IU/L
same,AST,3 h,89.2 IU/L
same,BUN,3 h,10.6 mg/dL
same,CRE,3 h,0.2 mg/dL
same,Ca,3 h,10.4 mg/dL
same,Cl,3 h,106 meq/L
same,DBIL,3 h,0.002 mg/dL
same,GLC,3 h,161 mg/dL
same,IP,3 h,8.5 mg/dL
same,LDH,3 h,202.4 IU/L
same,Na,3 h,141.6 meq/L
same,PL,3 h,124 mg/dL
same,RALB,3 h,3.1 g/dL
same,TBIL,3 h,0.002 mg/dL
same,TC,3 h,70.6 mg/dL
same,TG,3 h,47 mg/dL
same,TP,3 h,5.6 g/dL
same,gamma-GTP,3 h,1 IU/L
same,TERMINAL_BW,6 h,209.6 g
same,APTT,"6 h, tissue Blood",22.7 s
same,Bas,"6 h, tissue Blood",0%
same,Eos,"6 h, tissue Blood",0.8%
same,Fbg,"6 h, tissue Blood",320.6 mg/dL
same,Hb,"6 h, tissue Blood",12.9 g/dL
same,Ht,"6 h, tissue Blood",40.3%
same,Lym,"6 h, tissue Blood",72.2%
same,MCHC,"6 h, tissue Blood",31.9%
same,MCV,"6 h, tissue Blood",63.4 fL
same,Mono,"6 h, tissue Blood",2.6%
same,Neu,"6 h, tissue Blood",23.4%
same,PT,"6 h, tissue Blood",15.5 s
same,Plat,"6 h, tissue Blood",123.1 x10_4/uL
same,RBC,"6 h, tissue Blood",635.2 x10_4/ul
same,Ret,"6 h, tissue Blood",7.7%
same,WBC,"6 h, tissue Blood",86 x10_2/uL
same,KIDNEY_L,6 h,0.9 g
same,KIDNEY_R,6 h,1 g
same,KIDNEY_TOTAL,6 h,1.9 g
same,LIVER,6 h,9.2 g
same,ALP,6 h,1458 IU/L
same,ALT,6 h,41.2 IU/L
same,AST,6 h,72.6 IU/L
same,BUN,6 h,11.6 mg/dL
same,CRE,6 h,0.2 mg/dL
same,Ca,6 h,10.7 mg/dL
same,Cl,6 h,106 meq/L
same,DBIL,6 h,0.002 mg/dL
same,GLC,6 h,159.2 mg/dL
same,IP,6 h,9.1 mg/dL
same,LDH,6 h,198.6 IU/L
same,Na,6 h,139.4 meq/L
same,PL,6 h,142 mg/dL
same,RALB,6 h,3 g/dL
same,TBIL,6 h,0.002 mg/dL
same,TC,6 h,80.8 mg/dL
same,TG,6 h,82.2 mg/dL
same,TP,6 h,5.6 g/dL
same,gamma-GTP,6 h,1.4 IU/L
same,TERMINAL_BW,9 h,199.9 g
same,APTT,"9 h, tissue Blood",21.7 s
same,Bas,"9 h, tissue Blood",0%
same,Eos,"9 h, tissue Blood",0.8%
same,Fbg,"9 h, tissue Blood",330 mg/dL
same,Ht,"9 h, tissue Blood",41.9%
same,Lym,"9 h, tissue Blood",77.2%
same,MCHC,"9 h, tissue Blood",32.4%
same,MCV,"9 h, tissue Blood",64.1 fL
same,Mono,"9 h, tissue Blood",1.8%
same,Neu,"9 h, tissue Blood",19.8%
same,PT,"9 h, tissue Blood",15.7 s
same,Plat,"9 h, tissue Blood",117.5 x10_4/uL
same,RBC,"9 h, tissue Blood",653.4 x10_4/ul
same,Ret,"9 h, tissue Blood",7.3%
same,WBC,"9 h, tissue Blood",61.1 x10_2/uL
same,KIDNEY_L,9 h,0.9 g
same,KIDNEY_R,9 h,1 g
same,KIDNEY_TOTAL,9 h,1.9 g
same,LIVER,9 h,8.3 g
same,ALP,9 h,1309 IU/L
same,ALT,9 h,35.6 IU/L
same,AST,9 h,67.6 IU/L
same,BUN,9 h,13.6 mg/dL
same,CRE,9 h,0.2 mg/dL
same,Ca,9 h,10.7 mg/dL
same,Cl,9 h,107.6 meq/L
same,DBIL,9 h,0 mg/dL
same,GLC,9 h,149.6 mg/dL
same,IP,9 h,8.9 mg/dL
same,LDH,9 h,166 IU/L
same,Na,9 h,140.8 meq/L
same,PL,9 h,121 mg/dL
same,RALB,9 h,3.1 g/dL
same,TBIL,9 h,0.006 mg/dL
same,TC,9 h,63.2 mg/dL
same,TG,9 h,74 mg/dL
same,TP,9 h,5.6 g/dL
same,gamma-GTP,9 h,1.2 IU/L
same,TERMINAL_BW,24 h,220.9 g
same,APTT,"24 h, tissue Blood",21 s
same,Bas,"24 h, tissue Blood",0%
same,Eos,"24 h, tissue Blood",1%
same,Fbg,"24 h, tissue Blood",319 mg/dL
same,Ht,"24 h, tissue Blood",40.2%
same,Lym,"24 h, tissue Blood",80.8%
same,MCHC,"24 h, tissue Blood",32.7%
same,MCV,"24 h, tissue Blood",64.1 fL
same,Mono,"24 h, tissue Blood",1.8%
same,Neu,"24 h, tissue Blood",15.6%
same,PT,"24 h, tissue Blood",15.8 s
same,Plat,"24 h, tissue Blood",119.1 x10_4/uL
same,RBC,"24 h, tissue Blood",627.6 x10_4/ul
same,Ret,"24 h, tissue Blood",7.3%
same,WBC,"24 h, tissue Blood",89.5 x10_2/uL
same,KIDNEY_L,24 h,1 g
same,KIDNEY_R,24 h,1 g
same,KIDNEY_TOTAL,24 h,2 g
same,LIVER,24 h,11.2 g
same,ALP,24 h,1568 IU/L
same,ALT,24 h,53.6 IU/L
same,AST,24 h,76.6 IU/L
same,BUN,24 h,14.6 mg/dL
same,CRE,24 h,0.2 mg/dL
same,Ca,24 h,10.9 mg/dL
same,Cl,24 h,105.6 meq/L
same,DBIL,24 h,0 mg/dL
same,IP,24 h,8.9 mg/dL
same,LDH,24 h,160 IU/L
same,Na,24 h,143.4 meq/L
same,PL,24 h,157 mg/dL
same,RALB,24 h,3 g/dL
same,TBIL,24 h,0 mg/dL
same,TC,24 h,82.2 mg/dL
same,TG,24 h,118.2 mg/dL
same,TP,24 h,5.5 g/dL
same,gamma-GTP,24 h,1.6 IU/L
